Assay results from patent US5079260A, “Method for treating inflammation and compounds and compositions suitable for use therein” (Nova Pharmaceutical Corporation, priority 1990, dated 1992).

What was measured:
[1] = test system: Ear Edema Caused by Arachidonic Acid; assay: Inhibition of Ear Edema Caused by Arachidonic Acid (I), Table 2; type: in vivo, CF-1 Mice; details: dose not given in Example 4, sixty minutes
[2] = test system: Ear Edema Caused by Xylene; assay: Inhibition of Ear Edema Caused by Xylene (I), Table 3; type: in vivo, CF-1 Mice; details: 2 h
From the text: (§1) Such inflammatory agents typically include tetradecanoylphorbolacetate, arachidonic acid, xylene, capsaicin, oxazolone, carrageenan and the like. The reverse passive Arthus test offers another measure of the compound's utility in preventing an inflammatory response (Chang et al, Eur. J. Pharm. 69:155-164 (1981)). Test compounds are typically administered intraperitoneally or topically. For intraperitoneal administration, the test compound can be given in dimethyl sulfoxide or in 0.5% methylcellulose 30 minutes prior to administration of the irritant. For topical administration, the test compound can be dissolved in, for example, acetone, ethanol or dimethyl sulfoxide and applied about 15 minutes prior to application of the irritant. Results can be expressed as the percent decrease in swelling in the compound-treated animals as compared to control animals that receive only the irritant.
Inhibition of Ear Edema Caused by Xylene (I)
CF-1 Mice, 25-30 g body weight, six animals per group, were used. Test compounds (compounds of Formula I where X is oxygen, R3, R4, A and B are hydrogen and Q is as indicated in Table 3) were administered intraperitoneally (100 mg/kg) or topically as follows. For intraperitoneal administration, the test compound was dissolved in DMSO or 0.5% methylcellulose and 100 μl was injected 30 minutes prior to irritant. For topical administration, test compound was dissolved in either acetone, ethanol or dimethyl sulfoxide and 5 μl (10 μg) applied to the upper surface (1 cm^2) of the ear and an additional 5 μl (10 μg) applied to the lower surface (1 cm^2) of the ear fifteen minutes prior to application of the irritant. The irritant, xylene, was added to the surface of the ear, 20 μl added to the upper surface and 20 μl to the lower surface. After two hours, the thickness of the ear was measured to 0.01 mm by a micrometer with loose drag positioned at the lateral-most edge of the mid-point of the pinna. Data were calculated as the inhibition by the test compound of increased ear thickness compared to that of control animals receiving only the irritant.

[3] = test system: Ear Edema Caused by Tetradecanoylphorbolacetate; assay: Inhibition of Ear Edema Caused by Tetradecanoylphorbolacetate (I), Table 1; type: in vivo, CF-1 Mice
From the text: as §1
Inhibition of Ear Edema Caused by Tetradecanoylphorbolacetate (I)
CF-1 Mice, 25-30 g body weight, six animals per group, were used. Test compounds (compounds of Formula I where X is oxygen, R3, R4, A and B are hydrogen and Q is as indicated in Table 1) were administered intraperitoneally (100 mg/kg) or topically as follows. For intraperitoneal administration, the test compound was dissolved in dimethyl sulfoxide or 0.5% methylcellulose and 100 μl was injected 30 minutes prior to irritant (100 mg/kg, i.p.). For topical administration, the test compound was dissolved in either acetone, ethanol or dimethyl sulfoxide and 5 μl (100 μg) applied to the upper surface (1 cm^2) of the ear and an additional 5 μl (100 μg) applied to the lower surface (1 cm^2) of the ear fifteen minutes prior to application of the irritant. A solution of the irritant, tetradecanoylphorbolacetate, 200 μg/ml, was added to the surface of the ear, 5 μl added to the upper surface and 5 μl to the lower surface. After three hours, the thickness of the ear was measured to 0.01 mm by a micrometer with loose drag positioned at the lateral-most edge of the mid-point of the pinna. Data were calculated as the inhibition by the test compound of increased ear thickness compared to control animals receiving only the irritant.

[4] = test system: Reverse Passive Artus Reaction; assay: Reverse Passive Artus Reaction (I), Table 6; type: in vivo, Male CD rats; details: inhibition of blueing; i.p., 100 mg/kg, one hour before antigen
From the text: as §1
Reverse Passive Artus Reaction (I)
Male CD rats weighing between 200 and 250 g were used. Test compounds (compounds of Formula I where X is oxygen, R3, R4, A and B are hydrogen and Q is as indicated in Table 6) were dissolved in dimethyl sulfoxide and 200 μl of this solution (100 mg/kg) were injected intraperitoneally one hour before administration of the antigen. The animals were anesthetized inhalationally with isoflurane and then were injected through the penile vein with 1 ml of a solution of 2.5 mg of Evan's blue dye and 5.0 mg of human serum albumin in 1 ml of saline. This treatment was followed immediately by intracutaneous injections of 0.03 ml of anti-human albumin diluted to contain 3.65 mg of antibody at 3 sites along the midline back. Anesthesia was terminated and after three hours the animals were sacrificed. The skin was removed and the blue stained areas cut out. […] The tube contents were agitated and centrifuged, and the absorbance of the supernatant liquid was measured at 620 nm. The data were calculated as inhibition of blueing by test compound compared to control animals receiving only antigen and antibody.

[5] = test system: Ear Edema Caused by Capsaicin; assay: Inhibition of Ear Edema Caused by Capsaicin, Table 4; type: in vivo, CF-1 Mice
From the text: as §1
Inhibition of Ear Edema Caused by Capsaicin
CF-1 Mice, 25-30 g body weight, six animals per group, were used. […] After thirty minutes, the thickness of the ear was measured to 0.01 mm by a micrometer with loose drag positioned at the lateral-most edge of the mid-point of the pinna. Data were calculated as the inhibition by the test compound of increased ear thickness compared to control animals receiving only the irritant.

[6] = test system: Ear Edema Caused by Oxazolone; assay: Inhibition of Ear Edema Caused by Oxazolone (I), Table 5; type: in vivo, CF-1 Mice; details: i.p., 100 mg/kg, 30 min before irritant; sensitized mice; 24 h
From the text: as §1
Inhibition of Ear Edema Caused by Oxazolone (I)
CF-1 Mice, 25-30 g body weight, six animals per group, were used. The mice were sensitized to the irritant two weeks prior to the test by dribbling 100 μl of a 3% solution of oxazolone in acetone onto the abdominal skin of the animal. Test compounds (compounds of Formula I where X is oxygen, R3, R4, A and B are hydrogen and Q is as indicated in Table 5) were administered intraperitoneally as follows. The test compound was dissolved in DMSO or 0.5% methylcellulose and 100 μl (100 mg/kg) was injected 30 minutes prior to irritant. The irritant, 3% oxazolone in acetone, was added to the surface of the ear, 5 μl added to the upper surface and 5 μl to the lower surface. After twenty four hours, the thickness of the ear was measured to 0.01 mm by a micrometer with loose drag positioned at the lateral-most edge of the mid-point of the pinna. Data were calculated as the inhibition by the test compound of increased ear thickness compared to control animals receiving only the irritant.

[7] = test system: Ear Edema Caused by Arachidonic Acid; assay: Inhibition of Ear Edema Caused by Arachidonic Acid (I), Table 2; type: in vivo, CF-1 Mice; details: i.p., 100 mg/kg; ear thickness at sixty minutes
From the text: as §1
Inhibition of Ear Edema Caused by Arachidonic Acid (I)
CF-1 Mice, 25-30 g body weight, six animals per group, were used. Test compounds (compounds of Formula I where X is oxygen, R3, R4, A and B are hydrogen and Q is as indicated in Table 2) were administered intraperitoneally (100 mg/kg) as follows. For intraperitoneal administration, test compound was dissolved in DMSO or 0.5% methylcellulose and 100 μl was injected 30 minutes prior to i.p. administration of 100 mg/kg of arachidonic acid. A solution of the irritant, arachidonic acid, 100 mg/ml in ethanol, was added to the surface of the ear, 5 μl added to the upper surface and 5 μl to the lower surface. After sixty minutes, the thickness of the ear was measured to 0.01 mm by a micrometer with loose drag positioned at the lateral-most edge of the mid-point of the pinna. Data were calculated as the percent inhibition by the test compound of increased ear thickness compared to control animals receiving only the irritant.

CC(C)C[C@H](NC(=O)OCC1c2ccccc2-c2ccccc21)C(=O)O [L-Leucine, N-[(9H-Fluoren-9-ylmethoxy)carbonyl]-L-leucine]
% Inhibition, topical [1]: 41% | % Inhibition Intraperitoneal ([2]; i.p., 100 mg/kg, 30 min before irritant): 47% | % Inhibition, topical ([2]; topical, 10 μg upper + 10 μg lower ear surface, 15 min before irritant): 66% | % Inhibition Intraperitoneal ([3]; i.p., 100 mg/kg, 30 min before irritant, ear thickness at 3 h): 54% | % Inhibition, topical ([3]; topical, 100 μg upper + 100 μg lower ear surface, 15 min before irritant, 3 h): 41% | % Inhibition Intraperitoneal [4]: 48% | % Inhibition Intraperitoneal ([5]; i.p., 100 mg/kg, 30 min before irritant, ear thickness at thirty minutes): 74% | % Inhibition Intraperitoneal [6]: 58% | % Inhibition Intraperitoneal [7]: 62%

D-Pro^2 -D-Trp^7.9 -Substance P [reference compound]
% Inhibition Intraperitoneal ([2]; Reference Standard, 100 μg/ear): 44% | % Inhibition Intraperitoneal ([5]; Reference Standard, 100 μg/ear, thirty minutes): 34%
